Assay results: PMC7530112 (European journal of medicinal chemistry, 2020)
Several values for one entry are separate records, joined by “and”; a condition that tells them apart may be missing. Equal values may be shown once.

Key:
[1] = human, microsomes
[2] = mouse, microsomes
HIV-1NL4-3 = assay: Anti-HIV-1 assay in TZM-GFP cells; settings: for Inhibition% at 2 μM: 2 μM compound; for Inhibition% at 20 μM: 20 μM compound
[3] = Microsomal stability assay, human liver microsomes; settings: without Cobi
[4] = HLMs; cited from earlier work

Molecule | Phase I metabolic stability t1/2, HLM [1] | Phase I metabolic stability t1/2, MLM [2] | Inhibition% at 2 μM (HIV-1NL4-3) | Inhibition% at 20 μM (HIV-1NL4-3) | fold improved half-life over PF74 in HLMs [3] | half-life (t1/2) in human liver microsomes [4]
CN(C(=O)[C@H](Cc1ccccc1)NC(=O)Cc1ccc2ccccc2c1)c1ccc(Cl)cc1 [Compound 27, (S)-N-(4-Chlorophenyl)-N-methyl-2-(2-(naphthalen-2-yl)acetamido)-3-phenylpropanamide] | 2.7 min | 1.4 min | 95% | 100% | – | –
CN(C(=O)C(Cc1ccccc1)NC(=O)CN1C(=O)NC2(CCCCC2)C1=O)c1ccc(Cl)cc1 (stereo not drawn) [Compound 50, N-(4-Chlorophenyl)-2-(2-(2,4-dioxo-1,3-diazaspiro[4.5]decan-3-yl)acetamido)-N-methyl-3-phenylpropanamide] | 2.5 min | 1.1 min | – | −/96% | – | –
(2S)-N-(3-Chlorophenyl)-2-(2-(4,7-dimethyl-2-oxoindolin-3-yl)acetamido)-N-methyl-3-phenylpropanamide [Compound 24] | 6.7 min | 1.4 min | – | – | 7 to 10 fold and 10 fold | –
(S)-N-(4-Chlorophenyl)-N-methyl-2-(2-(naphthalen-1-yl)acetamido)-3-phenylpropanamide [Compound 33] | 1.1 min | 0.6 min | 98% | 100% | – | –
(S)-N-Methyl-2-(2-(2-methyl-1H-indol-3-yl)acetamido)-N,3-diphenylpropanamide [PF74, reference compound] | – | 0.6 min | 91% | 98% | – | less than 1 min
